# Experimental data as given in paper PMC3985777 (Biochemistry, 2014).
# How the values were obtained:
# [1] = target: HasAp (Pseudomonas aeruginosa, UniProt G3XD33, Y75A); test: biochemical
# [2] = target: HasAp (Pseudomonas aeruginosa, UniProt G3XD33, H83A); test: biochemical
structure (smiles),measurement,setting,value
C=CC1=C(C)C2=Cc3c(C=C)c(C)c4[n]3[Fe]([Cl])[n]3c(c(C)c(CCC(=O)O)c3=CC3=NC(=C4)C(C)=C3CCC(=O)O)=CC1=N2 [hemin],Kd,[1],129 µM
same,Kd,[2],30 µM
